# According to US20090191177A1, “Enantiomerically Pure (-) 2-[1-(7-methyl-2-(morpholin-4-yl)-4-oxo-4H-pyrido[1,2-A]pyrimidin-9-yl)ethylamino]benzoic Acid, Its Use In Medical Therapy, And A Pharmaceutical Composition Comprising It - 026” (priority 2008, published 2009):
# Tested on: washed platelets
# Experiment: Washed Platelet Aggregation (WPA), CD9 antibody-induced
# Format: cell-based
# Conditions: washed platelets from healthy volunteers, aggregation induced by mouse anti-human CD9 antibody
# Procedure: Blood was collected from healthy volunteers by venipuncture using a Venflon needle 1.5*45 mm (17 GA, 1.77 IN). The first 2 ml of blood was discarded prior to collecting aliquotes into tubes containing acid citrate dextrose (ACD). One volume of ACD is required for six volumes of blood.
# The anticoagulated blood was centrifuged for 15 min at 240×g to obtain platelet rich plasma (PRP). PRP was transferred to a new tube and centrifuged for 15 min at 2200×g. The supernatant was discarded and the platelet pellet re-suspended to […] in Tyrodes buffer (TB) containing 1 μM hirudin and 0.02 U/mL apyrase. The platelet suspension was left to rest at room temperature for 30 min. Just prior to time for assay, CaCl2 was added to a final concentration of 2 mM. The Compound, or wortmannin, was dissolved in DMSO and added to a 96 well plate prior to the addition of the washed platelet suspension. The platelet suspension was preincubated with inhibitor for 5 min. Light absorption at 650 nm was recorded before and after a 5 min plate shake and referred to as recording 0 (R0) and R1. A mouse anti-human CD9 antibody was added (at a donor specific concentration) to each well prior to next 10 min plate shake and light absorption recording; R2.
# A concentration response for CD9 antibody-induced aggregation in the absence or presence of 1 μM wortmannin (complete PI3K inhibition) was performed in each washed platelet suspension prior to testing of the Compound. The CD9 antibody concentration with the largest dependence of PI3K inhibition was chosen for the test.
# Light absorbance in wells with TB were subtracted from all readings before percent aggregation was calculated according the formula: [(R1−R2)/R1]×100=% aggregation. Spontaneous aggregation or pro-aggregatory effect of the inhibitor was evaluated by the same formula, [(R0−R1)/R0]×100=% aggregation.
Structure (SMILES),"IC50 (Homo sapiens, Platelet) [nM]",IC50 [nM]
"Cc1cc(C(C)Nc2ccccc2C(=O)O)c2nc(N3CCOCC3)cc(=O)n2c1 (racemic) [WO2004016607, 2-[1-(7-Methyl-2-(morpholin-4-yl)-4-oxo-4H-pyrido[1,2-α]pyrimidin-9-yl)ethylamino]benzoic acid, reference compound]",10,
"Cc1cc(C(C)Nc2ccccc2C(=O)O)c2nc(N3CCOCC3)cc(=O)n2c1 (single isomer, unassigned; (+)) [Ex. 2, (+) 2-[1-(7-Methyl-2-(morpholin-4-yl)-4-oxo-4H-pyrido[1,2-a]pyrimidin-9-yl)ethylamino]benzoic acid]",,1650
"Cc1cc(C(C)Nc2ccccc2C(=O)O)c2nc(N3CCOCC3)cc(=O)n2c1 (single isomer, unassigned; (-)) [Ex. 1, (−) 2-[1-(7-Methyl-2-(morpholin-4-yl)-4-oxo-4H-pyrido[1,2-a]pyrimidin-9-yl)ethylamino]benzoic acid]",,6
